As a reminder, the IC50 is the concentration at which inhibition is half-maximal.

Consider ten compounds from US10385065B2, “Antibacterial compounds” (priority 2014, dated 2019).

Values after ≈ are worked out from the molar mass of the structure shown. Read-outs that look alike come from different tables or passages of the source. Where only a bound is given, the exact number is not on record here.

Holding throughout (type): cell-based
For test [1], the system named is human hepatic cell line (HepG2 ATCC HB-8065). In words: Human cell viability assay (CellTiter-Glo), HepG2. To be noted: HepG2, 24 h incubation, tested over 1-128 μg/mL, read-out: IC50 values against HepG2. The method, then: Compounds are assessed for potential non-specific cytotoxic effects against a human hepatic cell line (HepG2 ATCC HB-8065). HepG2 cells are seeded at 20,000 cells/well in 96-well microtitre plates in minimal essential medium (MEM) supplemented with a final concentration of 10% FBS and 1 mM sodium pyruvate. After 24 h compound dilutions are prepared in Dulbecco's minimum essential media (DMEM) supplemented with final concentrations of 0.001% FBS, 0.3% bovine albumin and 0.02% HEPES and added to cells. Compounds are tested in two-fold serial dilutions over a final concentration range of 1-128 μg/mL in a final DMSO concentration of 1% vol/vol. Chlorpromazine is used as a positive control. Cells are incubated with compound at 37° C. and 5% CO2 for a further 24 h, after which time the CellTiter-Glo reagent (Promega) is added. Luminescence is measured on a BMG Omega plate reader. Data are analysed using GraphPad Prism software to determine the concentration of compound that inhibits cell viability by fifty percent (IC50).

Test [2] deals with Haemophilus influenzae ATCC 49247. Description: MIC, H. influenzae ATCC 49247. To be noted: ATCC49247, Table 4.
For test [3], the system named is Staphylococcus aureus ATCC 29213. Description: MIC, broth microdilution, S. aureus ATCC 29213.
Test [4] has as its system Enterococcus faecium ATCC 19434. In words: MIC, E. faecium ATCC 19434. The settings on record: ATCC19434, Table 2.
Test [5] relates to Escherichia coli ATCC 25922. Description: MIC, broth microdilution, E. coli ATCC 25922. The settings on record: ATCC25922, Table 1, wild type strain.
Where [6] appears, read: ATCC29213, Table 1, wild type strain, read-out: MIC S. aureus ATCC 29213.
The mark [7] stands for this setting: ATCC 29213 / MSSA, Table 2, read-out: MIC S. aureus (MSSA) ATCC 29213 CLSI control strain.

On to `O=C(O)c1cn(C2CC2)c2cc(N3CCNCC3)c(F)cc2c1=O` [Ciprofloxacin, reference compound], for which the IC50 in test [1] is > 100 µg/mL.

Take `Cc1c(-c2ccc(N)cc2F)ccc2c3ocnc3c(=O)n(C3CC3)c12` [Compound 5, 7-(4-amino-2-fluoro-phenyl)-5-cyclopropyl-6-methyl-oxazolo[4,5-c]quinolin-4-one]: the IC50 in test [1] lay in the range of 10 to 100 µg/mL (≈ 28.6 to 286 µM). Moreover, the MIC in test [2] is < 1 µg/mL; in test [3] (setting [6]), < 1 µg/mL; in test [3] (setting [7]), < 1 µg/mL; in test [4], > 100 µg/mL; in test [5], 1 to 10 µg/mL (≈ 2.86 to 28.6 µM).

In the case of `Cc1nc2c(=O)n(C3CC3)c3c(C)c(-c4ccc(C(=O)O)cc4)ccc3c2o1` [Compound 8, 4-(5-cyclopropyl-2,6-dimethyl-4-oxo-oxazolo[4,5-c]quinolin-7-yl)benzoic acid], the IC50 in test [1] was > 100 µg/mL. Further, the MIC in test [2] was 1 to 10 µg/mL (≈ 2.67 to 26.7 µM); in test [3] (setting [6]) it was 10 to 100 µg/mL (≈ 26.7 to 267 µM); in test [3] (setting [7]) it was > 100 µg/mL; in test [4], > 100 µg/mL; in test [5], > 100 µg/mL.

As to `Cc1nc2c(=O)n(C3CC3)c3c(C)c(-c4ccc(CN)cc4)ccc3c2o1` [Compound 9, 7-[4-{aminomethyl)phenyl]-5-cyclopropyl-2,6-dimethyl-oxazolo[4,5-c]quinolin-4-one], the IC50 in test [1] lay in the range of 10 to 100 µg/mL (≈ 27.8 to 278 µM). In addition, the MIC was 1 to 10 µg/mL (≈ 2.78 to 27.8 µM) in test [2]; < 1 µg/mL in test [3] (setting [6]); < 1 µg/mL in test [3] (setting [7]); > 100 µg/mL in test [4]; 1 to 10 µg/mL (≈ 2.78 to 27.8 µM) in test [5].

With `Cc1nc2c(=O)n(C3CC3)c3c(C)c(-c4ccc5[nH]ncc5c4)ccc3c2o1` [Compound 10, 5-cyclopropyl-7-(1H-indazol-5-yl)-2,6-dimethyl-oxazolo{4,5-c]quinolin-4-one], the IC50 in test [1] lay in the range of 10 to 100 µg/mL (≈ 27 to 270 µM). Besides, the MIC is 10 to 100 µg/mL (≈ 27 to 270 µM) in test [2]; < 1 µg/mL in test [3] (setting [6]); < 1 µg/mL in test [3] (setting [7]); > 100 µg/mL in test [4]; > 100 µg/mL in test [5].

Consider `Cc1nc2c(=O)n(C3CC3)c3c(C)c(-c4cnn(C5CN(C(=O)OC(C)(C)C)C5)c4)ccc3c2o1` [Compound 11, tert-butyl 3-[4-(5-cyclopropyl-2,6-dimethyl-4-oxo-oxazolo[4,5-c]quinolin-7-yl)pyrazol-1-yl]azetidine-1-carboxylate], for which the IC50 in test [1] is > 100 µg/mL. Further, the MIC in test [2] is 10 to 100 µg/mL (≈ 21 to 210 µM); in test [3] (setting [6]), 1 to 10 µg/mL (≈ 2.1 to 21 µM); in test [3] (setting [7]) it was 1 to 10 µg/mL (≈ 2.1 to 21 µM); in test [4], > 100 µg/mL; in test [5] it was > 100 µg/mL.

Turning to `Cc1c(-c2cc(F)c(N)c(F)c2)ccc2c3ocnc3c(=O)n(C3CC3)c12` [Compound 19], the IC50 in test [1] was in the range of 10 to 100 µg/mL (≈ 27.2 to 272 µM). For the same compound, the MIC in test [2] was 1 to 10 µg/mL (≈ 2.72 to 27.2 µM); in test [3] (setting [6]) it was < 1 µg/mL; in test [3] (setting [7]), < 1 µg/mL; in test [4], > 100 µg/mL; in test [5] it was > 100 µg/mL.

Consider `Cc1c(-c2cc(F)c(C(C)O)cc2F)ccc2c3ocnc3c(=O)n(C3CC3)c12` (stereo not shown) [Compound 22, 5-cyclopropyl-7-[2,5-difluoro-4-(1-hydroxyethyl)phenyl]-6-methyl-oxazolo[4,5-c]quinolin-4-one], for which the IC50 in test [1] lay within 10 to 100 µg/mL (≈ 25.2 to 252 µM). For the same compound, the MIC in test [2] is 1 to 10 µg/mL (≈ 2.52 to 25.2 µM); in test [3] (setting [6]), < 1 µg/mL; in test [3] (setting [7]) it was < 1 µg/mL; in test [4] it was 10 to 100 µg/mL (≈ 25.2 to 252 µM); in test [5] it was 1 to 10 µg/mL (≈ 2.52 to 25.2 µM).

As to `Cc1nc2c(=O)n(C3CC3)c3c(C)c(-c4cc(F)c(C#N)cc4F)ccc3c2o1` [Compound 24], the IC50 in test [1] is > 100 µg/mL. Besides, the MIC in test [2] was 1 to 10 µg/mL (≈ 2.56 to 25.6 µM); in test [3] (setting [6]), < 1 µg/mL; in test [3] (setting [7]), < 1 µg/mL; in test [4] it was > 100 µg/mL; in test [5], 10 to 100 µg/mL (≈ 25.6 to 256 µM).

On to `Cc1nc2c(=O)n(C3CC3)c3c(C)c(-c4ccc(C(C)(C)N)cc4)ccc3c2o1` [Compound 28, 7-[4-(2-aminopropan-2-yl)phenyl]-5-cyclopropyl-2,6-dimethyloxazolo[4,5-c]quinolin-4-one], for which the IC50 in test [1] lay within 10 to 100 µg/mL (≈ 25.8 to 258 µM). Also, the MIC in test [2] is 1 to 10 µg/mL (≈ 2.58 to 25.8 µM); in test [3] (setting [6]), 10 to 100 µg/mL (≈ 25.8 to 258 µM); in test [3] (setting [7]) it was 1 to 10 µg/mL (≈ 2.58 to 25.8 µM); in test [4] it was 10 to 100 µg/mL (≈ 25.8 to 258 µM); in test [5] it was 10 to 100 µg/mL (≈ 25.8 to 258 µM).
